Target: T1, human TREK-1 (Homo sapiens, UniProt O95069)
T1 construct: expressed in transfected cells
T1 sequence (O95069 1-426): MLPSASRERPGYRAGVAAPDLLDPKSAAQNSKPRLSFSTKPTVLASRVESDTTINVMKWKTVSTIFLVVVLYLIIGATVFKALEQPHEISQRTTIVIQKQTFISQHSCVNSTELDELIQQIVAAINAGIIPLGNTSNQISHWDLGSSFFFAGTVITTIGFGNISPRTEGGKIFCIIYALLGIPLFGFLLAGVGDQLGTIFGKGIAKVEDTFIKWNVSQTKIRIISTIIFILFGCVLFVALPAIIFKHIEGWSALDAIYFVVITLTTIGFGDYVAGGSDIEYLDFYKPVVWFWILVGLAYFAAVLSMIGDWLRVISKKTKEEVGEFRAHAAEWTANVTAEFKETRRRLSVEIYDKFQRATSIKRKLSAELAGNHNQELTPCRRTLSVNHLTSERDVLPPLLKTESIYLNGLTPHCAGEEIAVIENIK
Experiment: TREK-1 Thallium (Tl+) flux assay, Method 1
Assay type: cell-based
Settings: TREK-1 Thallium (Tl+) flux assay; values without footnote *12 are Method 1
Summary of the method: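 CHO-K1 cells stably expressing human TREK-1, loaded with Thallos dye, received compound or 0.3% DMSO vehicle for 10 min before thallium stimulus buffer. ΔRatio is fluorescence at 25 s after thallium addition over mean pre-addition fluorescence; % inhibition calculated from it.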

Row | SMILES | IC50 [nM]
1 | CC(=O)N1CCC(Cn2ncc(Cl)c2C(=O)Nc2ncc(C#Cc3ccccc3)cc2C)C(F)(F)C1 (stereo not drawn) [Compound 98, 1-((1-acetyl-3,3-difluoropiperidin-4-yl)methyl)-4-chloro-N-(3-methyl-5-(phenylethynyl)pyridin-2-yl)-1H-pyrazole-5-carboxamide] | 180
2 | CC(=O)N1CC[C@H](n2ncc(Cl)c2C(=O)Nc2ncc(C#Cc3ccccc3)cc2C)[C@H](F)C1 [Compound 99, 1-((3R,4S)-1-acetyl-3-fluoropiperidin-4-yl)-4-chloro-N-(3-methyl-5-(phenylethynyl)pyridin-2-yl)-1H-pyrazole-5-carboxamide] | 180
3 | CC(C)(C)C(=O)N1CCC(n2ncc(Cl)c2C(=O)Nc2ncc(C#Cc3ccccc3)cc2F)CC1 [Compound 100, 4-chloro-N-(3-fluoro-5-(phenylethynyl)pyridin-2-yl)-1-(1-pivaloylpiperidin-4-yl)-1H-pyrazole-5-carboxamide] | 190
4 | Cc1cc(C#Cc2ccc(F)cc2)cnc1NC(=O)c1c(Cl)cnn1C1CCN(C(=O)C2CC2)CC1 [Compound 101, 4-chloro-1-(1-(cyclopropanecarbonyl)piperidin-4-yl)-N-(5-((4-fluorophenyl)ethynyl)-3-methylpyridin-2-yl)-1H-pyrazole-5-carboxamide] | 190
5 | CC(=O)N1CCC(CCn2ncc(Cl)c2C(=O)Nc2ncc(C#Cc3ccccc3)cc2F)CC1 [Compound 102, 1-(2-(1-acetylpiperidin-4-yl)ethyl)-4-chloro-N-(3-fluoro-5-(phenylethynyl)pyridin-2-yl)-1H-pyrazole-5-carboxamide] | 190
6 | Cc1cc(C#Cc2cccs2)cnc1NC(=O)c1c(Cl)cnn1CC1CCN(C(=O)C2COCCO2)CC1 (stereo not drawn) [Compound 103, 1-((1-(1,4-dioxane-2-carbonyl)piperidin-4-yl)methyl)-4-chloro-N-(3-methyl-5-(thiophen-2-ylethynyl)pyridin-2-yl)-1H-pyrazole-5-carboxamide] | 190
7 | Cc1cc(C#Cc2cccc(F)c2)cnc1NC(=O)c1c(Cl)cnn1CC1CCN(C(=O)C2COCCO2)CC1 (stereo not drawn) [Compound 104, 1-((1-(1,4-dioxane-2-carbonyl)piperidin-4-yl)methyl)-4-chloro-N-(5-((3-fluorophenyl)ethynyl)-3-methylpyridin-2-yl)-1H-pyrazole-5-carboxamide] | 190
8 | CC(=O)N1CCOC(Cn2ncc(Cl)c2C(=O)Nc2ncc(C#Cc3ccccc3)cc2C)C1 (stereo not drawn) [Compound 105, 1-((4-acetylmorpholin-2-yl)methyl)-4-chloro-N-(3-methyl-5-(phenylethynyl)pyridin-2-yl)-1H-pyrazole-5-carboxamide] | 190
9 | CCC(=O)N1CCC(n2ncc(Cl)c2C(=O)Nc2ncc(C#Cc3ccccc3)cc2C)C1 (stereo not drawn) [Compound 106, 4-chloro-N-(3-methyl-5-(phenylethynyl)pyridin-2-yl)-1-(1-propionylpyrrolidin-3-yl)-1H-pyrazole-5-carboxamide] | 190
10 | CC(=O)NC1CCCC(n2ncc(Cl)c2C(=O)Nc2ncc(C#Cc3ccccc3)cc2C)C1 (stereo not drawn) [Compound 107, 1-(3-acetamidocyclohexyl)-4-chloro-N-(3-methyl-5-(phenylethynyl)pyridin-2-yl)-1H-pyrazole-5-carboxamide hydrofluoride] | 190
11 | Cc1cc(C#Cc2ccccc2)cnc1NC(=O)c1c(Cl)cnn1C[C@H]1CCN(C(=O)C(C)C)C[C@H]1F [Compound 108, 4-chloro-1-(((3S,4R)-3-fluoro-1-isobutyrylpiperidin-4-yl)methyl)-N-(3-methyl-5-(phenylethynyl)pyridin-2-yl)-1H-pyrazole-5-carboxamide] | 190
12 | CC(=O)N1CC[C@@H](Cn2ncc(Cl)c2C(=O)Nc2ncc(C#Cc3ccccc3)cc2C)[C@@H](F)C1 [Compound 109, 1-(((3R,4S)-1-acetyl-3-fluoropiperidin-4-yl)methyl)-4-chloro-N-(3-methyl-5-(phenylethynyl)pyridin-2-yl)-1H-pyrazole-5-carboxamide] | 190

— patent US20240182445A1 (ONO PHARMACEUTICAL CO., LTD., priority 2019, published 2024)
